{"source": "patent US8741871B2", "about": "“Trehalose compound, method for producing same, and pharmaceutical product containing the compound” (priority 2008, dated 2014)", "test_system": "mouse intraperitoneal macrophages", "assay": "Measurement of cytokine released from mouse intraperitoneal macrophages (ELISA)", "assay_type": "cell-based", "details": "100 μM test compound, two hours", "experimental": "Mouse intraperitoneal macrophages, a 40 mM test compound solution, and an RPMI 1640 medium were prepared in the same manner as described above.\nMacrophages were added to a TC-Plate, so that they became 80% confluent. The macrophages were incubated at 37° C. for 2 hours. Thereafter, the supernatant was discarded, and the cells were then washed with 500 μl of RPMI 1640 medium. This washing operation was repeatedly carried out two times. An emulsion solution of the test compound (final concentration: 100 μM) was allowed to act on the macrophages, and two hours later, the medium was transferred into another Eppendorf tube. […] This supernatant was used as a sample, and the released cytokines were analyzed using ELISA kit (IL-6, TNF-α Quantikine Immunoassay (R & D System (trademark))."}
{"smiles": "CCCCCCCCCCC(CCCCCCCCCC)C(=O)OCC1O[C@H](O[C@H]2OC(COC(=O)C(CCCCCCCCCC)CCCCCCCCCC)[C@@H](O)C(O)C2O)C(O)C(O)[C@@H]1O", "note": "(stereo partly drawn) [Example 1, 6,6′-bis-O-(2-decyldodecanoyl)-α,α′-trehalose]", "values": [{"measurement": "amount of IL-6 released from mouse intraperitoneal macrophages", "setting": "vehicle approximately 15 pg/ml", "result": "approximately 200 pg/ml"}, {"measurement": "amount of TNF-α released from mouse intraperitoneal macrophages", "setting": "vehicle approximately 80 pg/ml", "result": "approximately 1000 pg/ml"}]}
